Source: ChEMBL document CHEMBL3991601, “The target landscape of clinical kinase drugs” (Science, 2017)
Active and inactive are the calls of the source.

Assays:
[1] = target: Calcium/calmodulin-dependent protein kinase type II subunit gamma (Homo sapiens, UniProt Q13555)
[2] = target: Serine/threonine-protein kinase MRCK gamma (Homo sapiens, UniProt Q6DT37)
[3] = target: Serine/threonine-protein kinase/endoribonuclease IRE1 (Homo sapiens, UniProt O75460)
[4] = target: T1, Scaffold protein ILK (Homo sapiens, UniProt Q13418)
T1 sequence (Q13418 whole entry): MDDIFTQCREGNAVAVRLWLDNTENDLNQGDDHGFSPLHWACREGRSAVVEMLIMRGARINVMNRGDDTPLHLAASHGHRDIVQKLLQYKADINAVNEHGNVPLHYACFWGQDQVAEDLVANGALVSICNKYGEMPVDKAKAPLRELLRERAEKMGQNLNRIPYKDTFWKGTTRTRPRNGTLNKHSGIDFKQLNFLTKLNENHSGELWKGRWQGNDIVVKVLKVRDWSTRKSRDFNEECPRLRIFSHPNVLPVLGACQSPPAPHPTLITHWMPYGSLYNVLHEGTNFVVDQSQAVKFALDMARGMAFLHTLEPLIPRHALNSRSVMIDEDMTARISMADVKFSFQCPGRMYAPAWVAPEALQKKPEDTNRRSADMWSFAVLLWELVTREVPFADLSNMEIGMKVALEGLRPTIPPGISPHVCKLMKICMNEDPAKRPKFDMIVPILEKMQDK

[5] = target: Mitogen-activated protein kinase 3 (Homo sapiens, UniProt P27361)
[6] = target: T2, Membrane-associated tyrosine- and threonine-specific cdc2-inhibitory kinase (Homo sapiens, UniProt Q99640)
T2 sequence (Q99640 whole entry): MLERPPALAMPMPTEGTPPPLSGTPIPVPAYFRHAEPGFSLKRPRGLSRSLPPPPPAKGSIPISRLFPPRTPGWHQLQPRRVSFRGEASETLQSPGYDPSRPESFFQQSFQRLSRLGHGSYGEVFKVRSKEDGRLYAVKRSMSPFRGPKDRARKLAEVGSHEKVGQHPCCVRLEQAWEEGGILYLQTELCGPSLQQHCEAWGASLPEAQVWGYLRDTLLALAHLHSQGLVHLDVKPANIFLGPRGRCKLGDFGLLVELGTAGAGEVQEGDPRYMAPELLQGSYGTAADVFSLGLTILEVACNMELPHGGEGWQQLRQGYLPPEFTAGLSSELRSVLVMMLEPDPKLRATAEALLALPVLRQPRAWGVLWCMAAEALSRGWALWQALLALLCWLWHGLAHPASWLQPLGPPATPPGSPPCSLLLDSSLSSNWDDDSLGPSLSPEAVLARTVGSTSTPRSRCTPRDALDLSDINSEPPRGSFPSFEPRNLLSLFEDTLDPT

[7] = target: Protein kinase C delta type (Homo sapiens, UniProt Q05655)
[8] = target: T3, Serine/threonine-protein kinase D2 (Homo sapiens, UniProt Q9BZL6)
T3 sequence (Q9BZL6 whole entry): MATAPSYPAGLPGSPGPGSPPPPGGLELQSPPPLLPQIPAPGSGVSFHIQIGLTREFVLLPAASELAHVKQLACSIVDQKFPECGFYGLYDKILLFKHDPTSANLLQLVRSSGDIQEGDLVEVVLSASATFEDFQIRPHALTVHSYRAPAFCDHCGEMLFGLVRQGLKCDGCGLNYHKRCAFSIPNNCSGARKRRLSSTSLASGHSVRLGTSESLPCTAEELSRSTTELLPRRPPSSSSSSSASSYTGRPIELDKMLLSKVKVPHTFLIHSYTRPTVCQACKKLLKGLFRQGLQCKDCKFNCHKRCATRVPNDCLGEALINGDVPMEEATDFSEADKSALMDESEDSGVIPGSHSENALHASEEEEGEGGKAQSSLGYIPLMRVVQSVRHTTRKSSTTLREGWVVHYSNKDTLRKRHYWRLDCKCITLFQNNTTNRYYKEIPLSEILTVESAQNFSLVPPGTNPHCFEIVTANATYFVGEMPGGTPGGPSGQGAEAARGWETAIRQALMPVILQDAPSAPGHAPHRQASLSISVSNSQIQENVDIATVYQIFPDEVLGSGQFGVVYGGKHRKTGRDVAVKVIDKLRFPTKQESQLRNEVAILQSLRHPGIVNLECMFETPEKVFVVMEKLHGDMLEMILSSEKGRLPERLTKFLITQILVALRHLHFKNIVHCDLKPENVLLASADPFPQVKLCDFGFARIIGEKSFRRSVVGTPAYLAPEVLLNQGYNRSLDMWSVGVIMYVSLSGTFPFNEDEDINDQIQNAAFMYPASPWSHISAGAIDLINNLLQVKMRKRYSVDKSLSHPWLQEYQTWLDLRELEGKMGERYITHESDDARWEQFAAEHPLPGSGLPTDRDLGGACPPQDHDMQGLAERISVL

[9] = target: Ribosomal protein S6 kinase alpha-5 (Homo sapiens, UniProt O75582)
[10] = target: T4, Septin-9 (Homo sapiens, UniProt Q9UHD8)
T4 sequence (Q9UHD8 whole entry): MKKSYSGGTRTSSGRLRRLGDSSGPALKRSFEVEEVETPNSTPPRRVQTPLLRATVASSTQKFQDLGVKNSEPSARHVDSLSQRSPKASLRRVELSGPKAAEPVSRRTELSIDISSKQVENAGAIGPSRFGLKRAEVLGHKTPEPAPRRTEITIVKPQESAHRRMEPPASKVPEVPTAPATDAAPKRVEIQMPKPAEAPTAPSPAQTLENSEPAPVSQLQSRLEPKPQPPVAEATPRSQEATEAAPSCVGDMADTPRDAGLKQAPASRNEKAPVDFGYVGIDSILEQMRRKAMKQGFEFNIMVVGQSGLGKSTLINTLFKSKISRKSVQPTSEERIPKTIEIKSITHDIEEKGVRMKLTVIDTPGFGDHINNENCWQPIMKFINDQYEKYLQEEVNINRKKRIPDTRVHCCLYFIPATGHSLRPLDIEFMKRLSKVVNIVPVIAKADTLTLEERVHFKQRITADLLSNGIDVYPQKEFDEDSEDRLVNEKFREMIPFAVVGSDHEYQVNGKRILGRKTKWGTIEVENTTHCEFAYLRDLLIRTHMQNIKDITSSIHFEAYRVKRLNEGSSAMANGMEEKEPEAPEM
Note: in the data inactive means no Kd found up to 30 µM.

Serine/threonine-protein kinase/endoribonuclease IRE1, sequence (O75460 whole entry): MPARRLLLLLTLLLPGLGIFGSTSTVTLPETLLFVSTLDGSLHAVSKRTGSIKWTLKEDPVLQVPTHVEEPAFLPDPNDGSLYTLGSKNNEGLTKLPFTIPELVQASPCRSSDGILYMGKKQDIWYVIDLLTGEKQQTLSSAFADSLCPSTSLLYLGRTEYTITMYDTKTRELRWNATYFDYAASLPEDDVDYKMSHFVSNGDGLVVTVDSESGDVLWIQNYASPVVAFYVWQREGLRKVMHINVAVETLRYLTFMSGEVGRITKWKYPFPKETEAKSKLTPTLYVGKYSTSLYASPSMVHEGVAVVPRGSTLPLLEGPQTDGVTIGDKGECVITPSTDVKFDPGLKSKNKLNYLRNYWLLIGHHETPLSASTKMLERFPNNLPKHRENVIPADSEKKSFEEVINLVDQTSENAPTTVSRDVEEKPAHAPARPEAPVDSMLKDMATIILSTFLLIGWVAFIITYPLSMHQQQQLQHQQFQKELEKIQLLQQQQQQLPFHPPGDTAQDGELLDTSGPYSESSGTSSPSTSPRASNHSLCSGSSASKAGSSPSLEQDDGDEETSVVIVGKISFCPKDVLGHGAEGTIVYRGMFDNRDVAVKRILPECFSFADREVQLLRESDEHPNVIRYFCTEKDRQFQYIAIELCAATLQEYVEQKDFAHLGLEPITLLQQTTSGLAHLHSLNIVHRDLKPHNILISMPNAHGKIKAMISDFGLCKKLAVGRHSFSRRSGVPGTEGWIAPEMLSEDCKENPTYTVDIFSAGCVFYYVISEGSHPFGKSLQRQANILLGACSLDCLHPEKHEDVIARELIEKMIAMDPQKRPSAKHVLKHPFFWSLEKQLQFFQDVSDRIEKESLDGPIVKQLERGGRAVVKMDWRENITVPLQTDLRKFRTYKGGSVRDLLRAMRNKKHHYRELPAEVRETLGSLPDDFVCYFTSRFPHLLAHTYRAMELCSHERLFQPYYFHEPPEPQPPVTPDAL
Ribosomal protein S6 kinase alpha-5, sequence (O75582 whole entry): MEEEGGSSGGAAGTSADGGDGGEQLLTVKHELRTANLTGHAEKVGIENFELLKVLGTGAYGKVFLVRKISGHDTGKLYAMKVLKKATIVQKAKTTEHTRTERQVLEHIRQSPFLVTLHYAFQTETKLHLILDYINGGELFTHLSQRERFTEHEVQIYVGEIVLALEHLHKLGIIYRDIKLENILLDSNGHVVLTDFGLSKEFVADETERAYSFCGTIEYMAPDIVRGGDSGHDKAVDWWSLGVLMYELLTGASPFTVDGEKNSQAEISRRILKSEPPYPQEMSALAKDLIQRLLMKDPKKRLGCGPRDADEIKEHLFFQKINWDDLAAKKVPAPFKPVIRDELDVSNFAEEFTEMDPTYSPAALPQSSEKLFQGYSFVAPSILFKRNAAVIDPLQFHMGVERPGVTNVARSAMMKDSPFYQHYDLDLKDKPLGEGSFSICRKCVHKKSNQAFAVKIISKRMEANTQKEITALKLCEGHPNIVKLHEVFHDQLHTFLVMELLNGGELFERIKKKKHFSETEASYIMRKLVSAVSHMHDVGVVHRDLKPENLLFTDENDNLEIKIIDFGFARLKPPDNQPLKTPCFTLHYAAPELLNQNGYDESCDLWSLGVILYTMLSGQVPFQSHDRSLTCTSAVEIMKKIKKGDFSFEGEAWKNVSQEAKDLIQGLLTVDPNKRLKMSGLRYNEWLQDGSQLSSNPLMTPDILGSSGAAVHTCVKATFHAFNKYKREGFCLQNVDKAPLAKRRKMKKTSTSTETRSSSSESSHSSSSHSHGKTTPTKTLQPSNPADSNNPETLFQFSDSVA
Serine/threonine-protein kinase MRCK gamma, sequence (Q6DT37 whole entry): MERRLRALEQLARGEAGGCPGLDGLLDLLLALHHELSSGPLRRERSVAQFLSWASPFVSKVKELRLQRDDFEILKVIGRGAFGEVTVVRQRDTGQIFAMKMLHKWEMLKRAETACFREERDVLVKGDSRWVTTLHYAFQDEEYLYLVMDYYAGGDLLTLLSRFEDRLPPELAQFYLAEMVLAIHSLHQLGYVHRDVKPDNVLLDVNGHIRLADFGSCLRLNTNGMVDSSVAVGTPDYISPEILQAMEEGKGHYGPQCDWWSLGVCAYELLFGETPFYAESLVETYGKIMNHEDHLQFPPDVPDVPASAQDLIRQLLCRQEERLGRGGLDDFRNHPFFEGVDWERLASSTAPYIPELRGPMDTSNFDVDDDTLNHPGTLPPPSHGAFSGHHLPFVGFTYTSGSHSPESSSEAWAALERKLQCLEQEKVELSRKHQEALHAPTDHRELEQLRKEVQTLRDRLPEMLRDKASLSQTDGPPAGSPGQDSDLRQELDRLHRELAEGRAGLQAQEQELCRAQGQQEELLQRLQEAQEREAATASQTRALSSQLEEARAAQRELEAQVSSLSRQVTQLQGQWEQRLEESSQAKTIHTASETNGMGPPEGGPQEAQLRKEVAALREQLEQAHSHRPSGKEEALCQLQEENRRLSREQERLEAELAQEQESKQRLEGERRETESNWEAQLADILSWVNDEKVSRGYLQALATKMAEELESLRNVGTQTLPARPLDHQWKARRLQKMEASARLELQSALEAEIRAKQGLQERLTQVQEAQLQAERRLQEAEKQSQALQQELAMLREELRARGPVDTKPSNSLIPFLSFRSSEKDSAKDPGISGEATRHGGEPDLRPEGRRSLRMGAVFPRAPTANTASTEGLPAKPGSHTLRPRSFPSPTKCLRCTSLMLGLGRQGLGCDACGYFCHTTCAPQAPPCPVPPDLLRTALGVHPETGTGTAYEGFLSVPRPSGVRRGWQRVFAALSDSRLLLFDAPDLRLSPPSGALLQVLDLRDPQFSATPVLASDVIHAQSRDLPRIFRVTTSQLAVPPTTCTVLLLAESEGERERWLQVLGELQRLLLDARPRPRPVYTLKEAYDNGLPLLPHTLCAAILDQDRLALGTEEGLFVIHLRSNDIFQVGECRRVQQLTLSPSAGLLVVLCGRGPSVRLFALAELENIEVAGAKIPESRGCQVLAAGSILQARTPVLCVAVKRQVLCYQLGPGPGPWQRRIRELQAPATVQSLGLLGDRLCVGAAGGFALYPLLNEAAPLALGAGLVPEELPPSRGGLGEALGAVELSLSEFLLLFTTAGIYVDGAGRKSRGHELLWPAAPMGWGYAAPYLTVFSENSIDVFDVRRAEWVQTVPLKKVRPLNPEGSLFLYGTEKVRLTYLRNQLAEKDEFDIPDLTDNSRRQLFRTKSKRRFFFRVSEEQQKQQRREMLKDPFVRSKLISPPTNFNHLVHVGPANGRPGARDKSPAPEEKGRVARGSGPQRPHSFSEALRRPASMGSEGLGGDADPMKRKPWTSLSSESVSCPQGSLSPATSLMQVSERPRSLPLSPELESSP
Protein kinase C delta type, sequence (Q05655 whole entry): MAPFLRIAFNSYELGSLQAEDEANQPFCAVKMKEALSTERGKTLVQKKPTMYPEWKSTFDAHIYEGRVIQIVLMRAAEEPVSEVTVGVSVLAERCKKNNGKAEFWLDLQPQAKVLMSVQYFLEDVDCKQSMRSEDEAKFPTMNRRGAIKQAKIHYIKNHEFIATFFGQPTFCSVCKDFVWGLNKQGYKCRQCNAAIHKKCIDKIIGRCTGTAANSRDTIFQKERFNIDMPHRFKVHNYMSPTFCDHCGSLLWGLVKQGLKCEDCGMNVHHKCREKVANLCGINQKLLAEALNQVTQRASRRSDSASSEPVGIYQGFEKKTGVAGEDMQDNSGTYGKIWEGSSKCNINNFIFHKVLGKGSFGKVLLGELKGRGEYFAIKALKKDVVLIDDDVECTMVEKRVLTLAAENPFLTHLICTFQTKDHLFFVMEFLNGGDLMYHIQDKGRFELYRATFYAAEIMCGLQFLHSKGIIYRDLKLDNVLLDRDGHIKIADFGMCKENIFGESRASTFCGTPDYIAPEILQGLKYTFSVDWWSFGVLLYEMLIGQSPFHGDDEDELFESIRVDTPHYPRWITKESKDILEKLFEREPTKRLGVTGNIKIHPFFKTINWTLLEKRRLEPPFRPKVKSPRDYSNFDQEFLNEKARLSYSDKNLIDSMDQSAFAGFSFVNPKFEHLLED
Mitogen-activated protein kinase 3, sequence (P27361 whole entry): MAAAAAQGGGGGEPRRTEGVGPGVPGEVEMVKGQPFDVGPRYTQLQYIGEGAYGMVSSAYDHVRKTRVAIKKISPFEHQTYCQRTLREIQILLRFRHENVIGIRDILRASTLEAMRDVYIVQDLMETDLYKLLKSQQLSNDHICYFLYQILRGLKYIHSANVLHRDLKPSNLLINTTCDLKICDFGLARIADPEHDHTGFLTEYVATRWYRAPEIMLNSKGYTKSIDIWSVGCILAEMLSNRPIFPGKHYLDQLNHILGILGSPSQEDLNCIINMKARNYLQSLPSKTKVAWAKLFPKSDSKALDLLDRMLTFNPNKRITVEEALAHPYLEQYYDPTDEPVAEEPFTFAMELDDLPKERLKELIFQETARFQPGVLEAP
Calcium/calmodulin-dependent protein kinase type II subunit gamma, sequence (Q13555 whole entry): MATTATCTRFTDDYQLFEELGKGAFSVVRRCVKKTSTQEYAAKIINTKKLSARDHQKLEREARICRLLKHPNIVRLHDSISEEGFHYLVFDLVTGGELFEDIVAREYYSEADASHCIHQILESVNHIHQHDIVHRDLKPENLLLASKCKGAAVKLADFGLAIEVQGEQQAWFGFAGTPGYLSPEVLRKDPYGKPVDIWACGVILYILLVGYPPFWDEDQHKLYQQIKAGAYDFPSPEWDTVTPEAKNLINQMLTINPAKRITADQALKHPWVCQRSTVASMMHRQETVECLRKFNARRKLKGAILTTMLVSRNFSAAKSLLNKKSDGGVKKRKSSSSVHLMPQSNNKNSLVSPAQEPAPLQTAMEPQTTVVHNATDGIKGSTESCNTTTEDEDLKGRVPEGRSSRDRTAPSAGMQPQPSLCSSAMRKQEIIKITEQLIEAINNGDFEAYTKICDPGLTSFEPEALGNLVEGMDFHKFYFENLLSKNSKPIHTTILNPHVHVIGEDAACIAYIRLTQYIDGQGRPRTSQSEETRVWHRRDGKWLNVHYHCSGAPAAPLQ

SMILES	Kd [1]	Kd [2]	Kd [3]	Kd [4]	Kd [5]	Kd [6]	Kd [7]	Kd [8]	Kd [9]	Kd [10]
COc1cc2nccc(Oc3ccc(NC(=O)C4(C(=O)Nc5ccc(F)cc5)CC4)cc3)c2cc1OC [CABOZANTINIB]	> 30 µM (inactive)	> 30 µM (inactive)	> 30 µM (inactive)	> 30 µM (inactive)	> 30 µM (inactive)	> 30 µM (inactive)	> 30 µM (inactive)	> 30 µM (inactive)	> 30 µM (inactive)	> 30 µM (inactive)
O=C(Nc1ccc(OC(F)(F)F)cc1)c1sccc1NCc1ccnc2ccccc12 [OSI-930]	> 30 µM (inactive)	> 30 µM (inactive)	> 30 µM (inactive)	> 30 µM (inactive)	> 30 µM (inactive)	> 30 µM (inactive)	> 30 µM (inactive)	> 30 µM (inactive)	> 30 µM (inactive)	> 30 µM (inactive)
Cc1cc(Nc2nc(N[C@@H](C)c3ncc(F)cn3)ncc2Cl)n[nH]1 [AZD-1480]	> 30 µM (inactive)	> 30 µM (inactive)	> 30 µM (inactive)	> 30 µM (inactive)	> 30 µM (inactive)	> 30 µM (inactive)	> 30 µM (inactive)	> 30 µM (inactive)	> 30 µM (inactive)	> 30 µM (inactive)
COc1cc2ncnc3c2cc1OCCCCCN(C)Cc1ccc(Br)cc1N3 [JNJ-26483327]	> 30 µM (inactive)	> 30 µM (inactive)	> 30 µM (inactive)	> 30 µM (inactive)	> 30 µM (inactive)	> 30 µM (inactive)	> 30 µM (inactive)	> 30 µM (inactive)	> 30 µM (inactive)	> 30 µM (inactive)
C=CCn1c(=O)c2cnc(Nc3ccc(N4CCN(C)CC4)cc3)nc2n1-c1cccc(C(C)(C)O)n1 [ADAVOSERTIB]	> 30 µM (inactive)	> 30 µM (inactive)	> 30 µM (inactive)	> 30 µM (inactive)	> 30 µM (inactive)		> 30 µM (inactive)	> 30 µM (inactive)	> 30 µM (inactive)	> 30 µM (inactive)
COc1cc(F)c(F)c(Nc2ccc(I)cc2F)c1NS(=O)(=O)C1(C[C@H](O)CO)CC1 [REFAMETINIB]	> 30 µM (inactive)	> 30 µM (inactive)	> 30 µM (inactive)		> 30 µM (inactive)	> 30 µM (inactive)	> 30 µM (inactive)	> 30 µM (inactive)	> 30 µM (inactive)	> 30 µM (inactive)
O[C@H]1CC[C@H](Nc2ncc3nc(Nc4c(F)cc(F)cc4F)n([C@H]4CCOC4)c3n2)CC1 [TANZISERTIB]	> 30 µM (inactive)	> 30 µM (inactive)	1.36 µM (active)		3.69 µM (active)	> 30 µM (inactive)	> 30 µM (inactive)	> 30 µM (inactive)	> 30 µM (inactive)	> 30 µM (inactive)
CCN(CCCOc1ccc2c(Nc3cc(CC(=O)Nc4cccc(F)c4)n[nH]3)ncnc2c1)CCOP(=O)(O)O [BARASERTIB]	> 30 µM (inactive)	> 30 µM (inactive)	> 30 µM (inactive)		> 30 µM (inactive)	> 30 µM (inactive)	> 30 µM (inactive)	> 30 µM (inactive)	> 30 µM (inactive)	> 30 µM (inactive)
CCN1CCN(Cc2ccc(Nc3ncc(F)c(-c4cc(F)c5nc(C)n(C(C)C)c5c4)n3)nc2)CC1 [ABEMACICLIB]	0.018 µM (active)	> 30 µM (inactive)	> 30 µM (inactive)		> 30 µM (inactive)	> 30 µM (inactive)	0.795 µM (active)	2.06 µM (active)	> 30 µM (inactive)	> 30 µM (inactive)
CN1CCN(c2nc(C3=C(c4c[nH]c5ccccc45)C(=O)NC3=O)c3ccccc3n2)CC1 [SOTRASTAURIN]	> 30 µM (inactive)	> 30 µM (inactive)	> 30 µM (inactive)		> 30 µM (inactive)	> 30 µM (inactive)	0.005 µM (active)	> 30 µM (inactive)	> 30 µM (inactive)	> 30 µM (inactive)
